Measured values from patent US9120946B2, “Active energy ray curing type composition, container that accommodates composition, inkjet discharging device having container, and cured matter” (RICOH COMPANY, LTD., priority 2013, dated 2015).

Columns and labels:
female mice = experiment: skin sensitization test based on the LLNA (Local Lymph Node Assay), SI value by BrdU intake; format: in vivo; conditions: test substance 50.0 W/v % in acetone/olive oil 4:1, 25 μL to both auricles once a day for 3 days, SI less than 3 = negative
Experimental: The individuals remaining after the categorization were excluded from the test.
The test substance was weighed in a measuring flask, and the volume of the test substance was adjusted to 1 mL with the medium. The thus-prepared test substance preparation was placed in a light-shielded airtight container (made of glass).
This treatment was performed once a day for three consecutive days.
The surrounding tissue of each auricular lymph node was removed, and the auricular lymph nodes from both the auricles were collectively weighed.
After returning the auricular lymph nodes to room temperature, the auricular lymph nodes were mashed with the gradual addition of physiological saline, and suspended therein. The thus-obtained suspension was filtrated and thereafter dispensed into the wells of a 96-well microplate, with 3 wells being used per individual. The thus-dispensed suspensions were measured for intake of BrdU by the ELISA method. […] A multiplate reader (FLUOSTAR OPTIMA, product of BMG LABTECH Inc.) was used to measure the absorbance of each well (OD: 370 nm to 492 nm, the intake of BrdU), and the average of the absorbance of the 3 wells for each individual was used as the measurement of BrdU for the individual.

[1] = evaluation in Material Safety Data Sheet; cited from earlier work

Compound | SI values in LLNA test (female mice) | skin sensitization in MSDS [1]
polypropylene glycol diacrylate [a5] | 1.5 | –
C=C(C)C(=O)OCCOCCOC(=O)C(=C)C [a1, diethyleneglycol dimethacrylate] | 1.1 | –
caprolactone-modified dipentaerythritol hexaacrylate [a2] | – | Negative in MSDS
